Drawing on ChEMBL document CHEMBL1201862, “PubChem BioAssay data set” (2004), this text covers IC50, CC50 and EC50 for seven molecules.

Molecules are shown by their SMILES. Active and inactive are the calls of the source.

Assay [1] deals with T1, Carboxy-terminal domain RNA polymerase II polypeptide A small phosphatase 1 (Homo sapiens, UniProt Q9GZU7).
T1 sequence (Q9GZU7 whole entry): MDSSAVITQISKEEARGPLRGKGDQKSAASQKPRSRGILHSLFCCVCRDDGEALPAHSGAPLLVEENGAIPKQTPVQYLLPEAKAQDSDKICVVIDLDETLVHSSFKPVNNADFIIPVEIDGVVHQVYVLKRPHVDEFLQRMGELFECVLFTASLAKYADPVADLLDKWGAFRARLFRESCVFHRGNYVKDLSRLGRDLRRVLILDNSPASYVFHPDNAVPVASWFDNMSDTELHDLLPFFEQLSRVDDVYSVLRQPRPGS
The assay is described as follows: inhibitors of CTDSP1, concentration-response testing, biochemical assay, absorbance-based, actives from ultra-high-throughput screening (AID 540297). In kind it is functional.

Assay [2] has as its target DNA (cytosine-5)-methyltransferase 1 (Homo sapiens, UniProt P26358). The assay can be described thus: DNMT1 methyltransferase inhibitors, confirmation, biochemical, fluorescent molecular beacon (AID 602386). In kind it is functional.
The nature of assay [3]: THP-1 cell cytotoxicity, dose response, cytotoxicity control for Vif-APOBEC3G degradation inhibitor project, THP-1 cells (AID 1117359). It is filed as functional. The conditions noted are these: Human immunodeficiency virus 1, THP-1.
The target in assay [4] is T2, Polyadenylate-binding protein 1 (Homo sapiens, UniProt P11940). The assay is described as follows: PABP1 MLLE–PAM2 binding inhibitor potency, dose response, biochemical, fluorescence polarization, FITC-PAM2 peptide (AID 602259). In kind it is functional. To be noted: read-out: IC50_Mean.
Assay [5] has as its target T2, Polyadenylate-binding protein 1. The assay is described as follows: PABP1 MLLE–PAM2 interaction inhibitors, dose response, miRNA deadenylation inhibitor project, biochemical, fluorescence polarization, Cy5-PAM2 peptide, secondary (AID 602260). In kind it is functional. The conditions noted are these: read-out: IC50_Mean.
Assay [6] deals with T3, High affinity choline transporter 1 (Homo sapiens, UniProt Q9GZV3).
T3 sequence (Q9GZV3 whole entry): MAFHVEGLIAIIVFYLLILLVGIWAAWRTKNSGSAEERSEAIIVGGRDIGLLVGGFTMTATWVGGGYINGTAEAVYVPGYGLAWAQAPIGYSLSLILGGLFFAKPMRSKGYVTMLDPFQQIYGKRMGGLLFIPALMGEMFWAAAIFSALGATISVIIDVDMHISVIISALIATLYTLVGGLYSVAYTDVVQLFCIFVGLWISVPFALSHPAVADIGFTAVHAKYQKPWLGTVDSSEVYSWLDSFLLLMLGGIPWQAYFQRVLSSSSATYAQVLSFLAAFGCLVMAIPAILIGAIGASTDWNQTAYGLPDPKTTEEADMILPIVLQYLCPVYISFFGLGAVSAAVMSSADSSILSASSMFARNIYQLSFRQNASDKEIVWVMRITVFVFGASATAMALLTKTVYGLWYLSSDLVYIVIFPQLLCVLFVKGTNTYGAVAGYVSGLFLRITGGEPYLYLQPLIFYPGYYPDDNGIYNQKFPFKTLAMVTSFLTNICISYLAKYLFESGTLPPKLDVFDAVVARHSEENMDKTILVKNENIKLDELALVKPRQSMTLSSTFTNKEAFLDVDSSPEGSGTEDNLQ
The assay is described as follows: CHT inhibitors, dose response, cell-based, 10-point CRC, membrane potential dye (AID 588401).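 Note: membrane potential dye fluorescence of choline-evoked depolarization via CHT.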 It is filed as functional.

Assay [7] has as its target T3, High affinity choline transporter 1. The assay can be described thus: CHT inhibitors, dose response, cell-based, 5-point CRC, membrane potential dye (AID 504840). It is filed as functional.
The next assay concerns the target Troponin, cardiac muscle (Homo sapiens, UniProt P19429+P45379+P63316). The assay can be described thus: Fluorescence-based biochemical high throughput dose response assay for activators of the calcium sensitivity of cardiac Regulated Thin Filaments (RTF). [Related pubchem assays (depositor defined):AID493008, AID493018, AID504382, AID504383]. It is filed as protein-complex assay.

The nature of assay [8]: CRF-BP/CRF-R2 complex antagonists, dose response, cell-based, uHTS hits, 384-well (AID 651639). In kind it is functional, Homo sapiens. The conditions noted are these: read-out: IC50_Mean.
In assay [9] the target is T4, Corticotropin-releasing factor receptor 2/Corticotropin-releasing factor-binding protein (Homo sapiens, UniProt P24387+Q13324).
T4 sequence (Q13324 whole entry): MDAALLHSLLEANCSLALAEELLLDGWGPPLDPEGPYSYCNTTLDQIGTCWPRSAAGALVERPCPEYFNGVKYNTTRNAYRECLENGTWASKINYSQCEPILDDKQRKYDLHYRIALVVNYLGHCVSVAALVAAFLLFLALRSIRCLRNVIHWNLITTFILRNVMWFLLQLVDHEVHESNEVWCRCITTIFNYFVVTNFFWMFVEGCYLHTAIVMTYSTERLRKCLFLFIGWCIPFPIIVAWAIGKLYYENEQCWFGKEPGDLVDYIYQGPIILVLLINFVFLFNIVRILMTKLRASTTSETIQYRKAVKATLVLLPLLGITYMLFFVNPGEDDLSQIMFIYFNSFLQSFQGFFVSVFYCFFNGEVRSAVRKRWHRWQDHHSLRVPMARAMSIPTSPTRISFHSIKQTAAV
T4 sequence (P24387 whole entry): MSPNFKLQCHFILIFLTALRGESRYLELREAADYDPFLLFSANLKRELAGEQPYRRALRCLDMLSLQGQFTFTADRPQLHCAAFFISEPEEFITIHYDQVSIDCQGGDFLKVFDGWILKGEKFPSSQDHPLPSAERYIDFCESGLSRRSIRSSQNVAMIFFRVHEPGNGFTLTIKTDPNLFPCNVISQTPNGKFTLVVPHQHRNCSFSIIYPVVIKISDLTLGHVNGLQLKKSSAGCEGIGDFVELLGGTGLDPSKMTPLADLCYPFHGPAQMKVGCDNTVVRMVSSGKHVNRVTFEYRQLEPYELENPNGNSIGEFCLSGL
The assay is described as follows: Dose Response confirmation of uHTS hits for small molecule antagonists of the CRF-binding protein and CRF-R2 receptor complex. It is filed as functional. To be noted: read-out: IC50_Mean.

Assay [10] has as its target T4, Corticotropin-releasing factor receptor 2/Corticotropin-releasing factor-binding protein. The assay can be described thus: activators of CRF receptor 2 with binding protein – uHTS hits, confirmation (AID 602473). In kind it is functional. The conditions noted are these: read-out: EC50_Mean.
For assay [11], the target named is T5, Apoptotic protease-activating factor 1 (Homo sapiens, UniProt O14727).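 Note: caspase-3 cleavage of fluorogenic Rh110 DEVD substrate downstream of apoptosome activation.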
T5 sequence (O14727 whole entry): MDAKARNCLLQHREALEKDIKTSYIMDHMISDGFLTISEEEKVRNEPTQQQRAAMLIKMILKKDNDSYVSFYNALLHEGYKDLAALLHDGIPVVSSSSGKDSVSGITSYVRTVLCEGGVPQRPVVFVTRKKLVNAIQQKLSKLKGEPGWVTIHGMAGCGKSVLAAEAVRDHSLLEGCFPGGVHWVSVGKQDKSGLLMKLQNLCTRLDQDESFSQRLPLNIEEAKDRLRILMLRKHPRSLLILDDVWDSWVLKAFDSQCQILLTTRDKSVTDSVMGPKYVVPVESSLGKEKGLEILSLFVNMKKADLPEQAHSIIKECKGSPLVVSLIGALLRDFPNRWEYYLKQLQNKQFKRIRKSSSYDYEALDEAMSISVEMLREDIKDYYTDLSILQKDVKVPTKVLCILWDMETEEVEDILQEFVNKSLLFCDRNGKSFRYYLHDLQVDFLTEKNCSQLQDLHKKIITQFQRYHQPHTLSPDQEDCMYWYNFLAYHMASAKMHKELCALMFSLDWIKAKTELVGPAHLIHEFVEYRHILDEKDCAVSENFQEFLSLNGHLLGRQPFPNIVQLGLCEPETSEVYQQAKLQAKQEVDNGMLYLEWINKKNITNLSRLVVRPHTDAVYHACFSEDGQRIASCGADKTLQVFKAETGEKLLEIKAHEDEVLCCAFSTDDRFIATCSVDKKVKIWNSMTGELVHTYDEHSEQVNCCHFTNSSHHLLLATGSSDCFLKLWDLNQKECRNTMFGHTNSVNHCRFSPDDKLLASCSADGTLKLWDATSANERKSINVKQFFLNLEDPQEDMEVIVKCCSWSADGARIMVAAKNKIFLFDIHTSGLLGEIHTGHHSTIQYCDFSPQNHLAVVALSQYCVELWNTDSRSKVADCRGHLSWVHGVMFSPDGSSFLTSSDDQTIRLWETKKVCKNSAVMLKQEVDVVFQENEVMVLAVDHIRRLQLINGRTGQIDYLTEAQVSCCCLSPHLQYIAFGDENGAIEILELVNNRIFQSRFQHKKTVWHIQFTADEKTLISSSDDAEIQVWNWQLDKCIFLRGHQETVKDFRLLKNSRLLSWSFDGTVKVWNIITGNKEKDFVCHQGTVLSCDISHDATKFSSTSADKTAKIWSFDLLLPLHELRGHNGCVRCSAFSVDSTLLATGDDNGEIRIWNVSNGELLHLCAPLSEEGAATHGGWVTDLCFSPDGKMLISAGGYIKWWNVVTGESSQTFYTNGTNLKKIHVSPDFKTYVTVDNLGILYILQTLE
The assay is described as follows: SAR analysis of small molecule Activators of Apaf-1 in a Fluorescent assay. To be noted: read-out: EC50_Mean. It is filed as functional.

T2 sequence (P11940 whole entry): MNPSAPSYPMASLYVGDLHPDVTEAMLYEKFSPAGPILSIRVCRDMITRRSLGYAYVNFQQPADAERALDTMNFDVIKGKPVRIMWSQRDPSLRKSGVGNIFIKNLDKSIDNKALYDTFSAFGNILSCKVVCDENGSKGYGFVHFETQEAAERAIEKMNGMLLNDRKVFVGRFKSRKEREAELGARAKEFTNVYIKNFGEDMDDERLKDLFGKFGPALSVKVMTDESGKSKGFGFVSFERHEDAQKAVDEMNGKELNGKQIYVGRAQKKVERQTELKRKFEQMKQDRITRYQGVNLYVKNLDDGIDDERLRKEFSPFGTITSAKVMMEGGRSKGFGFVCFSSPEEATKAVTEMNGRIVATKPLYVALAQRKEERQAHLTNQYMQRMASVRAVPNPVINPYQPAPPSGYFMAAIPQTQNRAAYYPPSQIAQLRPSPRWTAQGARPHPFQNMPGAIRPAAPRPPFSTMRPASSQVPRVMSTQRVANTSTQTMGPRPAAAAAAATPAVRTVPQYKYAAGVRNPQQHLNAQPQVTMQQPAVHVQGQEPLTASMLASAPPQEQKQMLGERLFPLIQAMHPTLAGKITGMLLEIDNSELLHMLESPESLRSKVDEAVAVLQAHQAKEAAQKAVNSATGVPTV
Sequence of DNA (cytosine-5)-methyltransferase 1 (P26358 whole entry): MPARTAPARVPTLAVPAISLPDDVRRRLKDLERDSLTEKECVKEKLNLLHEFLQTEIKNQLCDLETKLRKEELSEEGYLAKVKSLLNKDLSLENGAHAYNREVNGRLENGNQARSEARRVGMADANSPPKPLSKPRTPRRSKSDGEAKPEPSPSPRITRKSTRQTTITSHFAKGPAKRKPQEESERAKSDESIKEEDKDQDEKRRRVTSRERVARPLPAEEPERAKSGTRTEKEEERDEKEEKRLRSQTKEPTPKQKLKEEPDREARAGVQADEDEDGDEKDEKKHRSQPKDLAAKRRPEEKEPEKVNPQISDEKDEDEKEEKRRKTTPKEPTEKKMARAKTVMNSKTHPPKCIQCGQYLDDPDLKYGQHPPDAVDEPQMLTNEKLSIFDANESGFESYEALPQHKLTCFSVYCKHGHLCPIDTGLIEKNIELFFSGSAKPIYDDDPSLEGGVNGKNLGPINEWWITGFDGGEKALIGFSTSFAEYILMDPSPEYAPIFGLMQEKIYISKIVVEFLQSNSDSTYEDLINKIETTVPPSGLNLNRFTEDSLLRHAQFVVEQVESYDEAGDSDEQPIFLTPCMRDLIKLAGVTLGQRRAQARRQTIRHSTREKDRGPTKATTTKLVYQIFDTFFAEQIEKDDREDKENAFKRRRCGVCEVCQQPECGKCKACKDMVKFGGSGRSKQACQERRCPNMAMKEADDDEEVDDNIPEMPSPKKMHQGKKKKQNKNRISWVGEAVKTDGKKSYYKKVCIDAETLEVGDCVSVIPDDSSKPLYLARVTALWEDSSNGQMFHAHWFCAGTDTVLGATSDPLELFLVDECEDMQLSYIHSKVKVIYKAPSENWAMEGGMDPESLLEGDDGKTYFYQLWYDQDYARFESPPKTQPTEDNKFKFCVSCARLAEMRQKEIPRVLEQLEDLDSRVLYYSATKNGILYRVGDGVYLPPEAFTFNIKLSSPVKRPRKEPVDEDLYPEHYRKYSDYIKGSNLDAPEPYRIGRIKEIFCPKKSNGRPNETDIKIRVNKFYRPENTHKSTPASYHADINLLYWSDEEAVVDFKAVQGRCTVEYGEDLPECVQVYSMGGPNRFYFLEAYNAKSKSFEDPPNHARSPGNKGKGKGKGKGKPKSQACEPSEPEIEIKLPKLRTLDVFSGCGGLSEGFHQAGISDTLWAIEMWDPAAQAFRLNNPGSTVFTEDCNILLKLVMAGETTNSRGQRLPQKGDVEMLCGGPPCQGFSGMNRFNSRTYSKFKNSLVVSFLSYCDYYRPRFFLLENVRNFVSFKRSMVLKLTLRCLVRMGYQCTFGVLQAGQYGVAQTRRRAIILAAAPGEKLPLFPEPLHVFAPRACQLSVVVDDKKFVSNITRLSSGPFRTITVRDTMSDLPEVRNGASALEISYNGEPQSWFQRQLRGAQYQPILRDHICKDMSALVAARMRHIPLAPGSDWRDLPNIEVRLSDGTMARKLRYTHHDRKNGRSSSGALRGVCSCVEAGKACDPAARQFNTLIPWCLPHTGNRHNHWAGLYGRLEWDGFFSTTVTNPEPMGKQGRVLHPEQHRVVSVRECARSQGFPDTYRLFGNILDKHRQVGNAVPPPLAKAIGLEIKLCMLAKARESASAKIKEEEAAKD

As to `COc1ccc(NC(=O)CN(C)C(=O)c2cc(-c3ccco3)nc3ccccc23)cc1`, the IC50 in [1] is 2.55 µM (active); in assay [2], 6.24 µM (active). Besides, the CC50 in assay [3] is > 40 µM (active).

In the case of `CN1c2ccccc2C(O)=C(C(S)=Nc2ccc(F)c(Cl)c2)S1(=O)=O`, the IC50 in assay [4] is > 66 µM (inactive); in [5], > 66 µM (inactive); in [6], 3.55 µM (active); in assay [7] it was 4.79 µM (active). The EC50 on Troponin, cardiac muscle is > 71.5 µM (inactive).

Take `CCC(Oc1ccccc1)C(=O)Nc1ccc(S(=O)(=O)NCC2CCCO2)cc1` (configuration not stated): the IC50 in assay [6] was 11.2 µM (active); in assay [7], 10.5 µM (active).

As for `O=C1NC(=S)S/C1=C\c1cccc([N+](=O)[O-])c1`, the figures for the IC50 in [8] and in assay [9] were > 20 µM (inactive) and 16.7 µM (active), respectively. Moreover, the EC50 in assay [10] was 10.8 µM (active).

As for `O=C(NCC(c1ccco1)N1CCCCC1)c1cccc(NS(=O)(=O)c2ccc(Br)cc2)c1` (configuration not stated), the IC50 is 3.36 µM (active) in assay [6] and 6.92 µM (active) in [7].

For `O=C1CC2(CC(c3ccc(F)cc3)=NO2)C(=O)N1c1cccc(Cl)c1` (configuration not stated), the EC50 in assay [11] was > 100 µM (inactive).

With `COc1cc(Cl)c(C)cc1NC(=O)CCS(=O)(=O)c1ccc(Cl)cc1`, the EC50 in [11] is > 100 µM (inactive).

A word on the CC50: it is the concentration giving 50% cytotoxicity.
